# Measured values taken from patent US20080031922A1, “Delivery System” (priority 2004, published 2008).
# “And” between values parts separate entries of the source, which are not always exact repeats. Equal entries are not always repeated.
# Assays:
# Format in all cases: physicochemical
# [1] = in vitro release rate of danazol from intravaginal ring (IVR)
# Description: The release rate of the therapeutically active substance from the device was measured in vitro as follows: The devices (implant, intravaginal ring, intracervical or intrauterine system) were attached into a stainless steel holder in vertical position and the holders with the devices were placed into glass bottles containing 75 ml of a dissolution medium, a 1 wt-% hydroxypropyl cyclodextrin solution. The glass bottles were shaked in shaking waterbath 100 rpm at 37° C. The dissolution medium was withdrawn and replaced by a fresh dissolution medium at predetermined time intervals, and the amount of the released substance was analysed by using standard HPLC methods. The concentration of the dissolution medium and the moment of change (withdrawal and replacement) of medium were selected, so that sink-conditions were maintained during the test. […] Hydroxypropyl β-cyclodextrin (HPBCD) was used as the regulating agent. Three different implants with different hydroxypropyl β-cyclodextrin (HPBCD) contents in the membrane were made and the results were compared to corresponding implants without any added HPBCD. All the implants consisted of a core containing the therapeutically active agent and a release rate-controlling membrane encasing the core. The core and the membrane silicone elastomer rods were manufactured by extrusion and the implant compositions were made by swelling the membrane in propanol, as explained above. The content of the therapeutically active agent was 20 wt-% (weight percent) in the core and the micronized hormone was mixed into the elastomer with a mixer before extrusion. The diameters of the IVR rings were ca. 50-55 mm and the periphery of the cross section ca. 9-10 mm, the thicknesses of the membranes were 0.25, 0.35 and 0.7 mm and the HPBCD contents of the membrane were 0.17 wt-%, 1.7 wt-% and 7.7 wt-% respectively. The results are shown in FIG. 1 for the daily in vitro release rate per core area (μg/(d*mm^2), shown as the y axis and days shown in the x-axis), wherein the empty triangles represent the results for 0.17 wt-% HPBCD-content in the membrane with 0.7 mm wall thickness. The empty squares illustrate the results for 1.7 wt-% HPBCD-content in the membrane with 0.35 mm wall thickness and the stars show the results for 7.7 wt-% HPBCD-content in the membrane with 0.25 mm wall thickness. The full triangles represent the comparative results for a membrane with wall thickness of 0.3 mm and the full squares illustrate the comparative results for a membrane with wall thickness of 0.9 mm.
# [2] = in vitro release rate of FAP from intrauterine system (IUS)
# Description: The release rate of the therapeutically active substance from the device was measured in vitro as follows:
# The devices (implant, intravaginal ring, intracervical or intrauterine system) were attached into a stainless steel holder in vertical position and the holders with the devices were placed into glass bottles containing 75 ml of a dissolution medium, a 1 wt-% hydroxypropyl cyclodextrin solution. The glass bottles were shaked in shaking waterbath 100 rpm at 37° C. The dissolution medium was withdrawn and replaced by a fresh dissolution medium at predetermined time intervals, and the amount of the released substance was analysed by using standard HPLC methods. The concentration of the dissolution medium and the moment of change (withdrawal and replacement) of medium were selected, so that sink-conditions were maintained during the test.
# HPBCD modification was tested with a fluorinated antiprogestin derivative (FAP, 11-(4-Acetylphenyl)-17-hydroxy-17-(1,1,2,2,2-pentafluoroethyl)estra-4,9-dien-3-one) in intrauterine (IUS) system. Two samples of 1 and 4 wt-% of HPBCD content in the membrane were prepared by combining with swelling separately extruded membrane and core elastomer rods over the IUS T-frame. The swelling agent was isopropanol.
# The content of the therapeutically active agent in the core elastomer was 65 wt-% and the outer diameter of the core was 2.88-2.92 mm and length 21.0-21.1 mm. The membrane was 3 mm longer than the core and the thickness of the membrane was 0,25 mm. FIG. 3 presents the release rate of the therapeutically active agent (μg/d, shown in the y-axis) from two FAP containing intrauterine systems as a function of time (days, shown in the x-axis) compared to a reference sample. Indeed, the squares represent the results for the reference sample, the losanges illustrate the results for the cyclodextrin modified membrane, when the amount of cyclodextrin was 1 wt-% and the triangles represent the results for the cyclodextrin modified membrane, when the amount of cyclodextrin was 4 wt-%.
# [3] = in vitro release rate of gestodene from implant
# Description: The release rate of the therapeutically active substance from the device was measured in vitro as follows: The devices (implant, intravaginal ring, intracervical or intrauterine system) were attached into a stainless steel holder in vertical position and the holders with the devices were placed into glass bottles containing 75 ml of a dissolution medium, a 1 wt-% hydroxypropyl cyclodextrin solution. The glass bottles were shaked in shaking waterbath 100 rpm at 37° C. The dissolution medium was withdrawn and replaced by a fresh dissolution medium at predetermined time intervals, and the amount of the released substance was analysed by using standard HPLC methods. The concentration of the dissolution medium and the moment of change (withdrawal and replacement) of medium were selected, so that sink-conditions were maintained during the test. The present invention was also tested with an implant containing gestodene, a synthetic progestogene hormone. The implant core and membrane rods were made with extrusion and the implant composition was made by swelling the membrane in propanol. The outer diameter of the implant core was 2.5-3.0 mm and the length 40-48 mm. The content of the therapeutically active agent in the core was 65 wt-%. The membrane thickness was 0.25 mm, inner diameter 2.35-2.65 mm, outer diameter was 3.0-3.25 mm and length 10 mm longer than the elastomer core. The HPBCD content of the implant membrane was 4 wt-%. The membrane was made of PEO-b-PDMS (15 wt-%) and PDMS (85 wt-%). The results are shown in FIG. 2 as the release rate of the therapeutically active agent (μg/d, shown in y-axis) versus time (days, shown in x-axis), wherein the squares represent the results for the Reference 1, the losanges represent the results for an implant having a HPBCD-containing membrane and the triangles illustrate the results for Reference 2. Reference 1 comprises a core having an outer diameter of 2.5 mm and a length of 40 mm, and a membrane, the thickness of which is 0.25 mm. The implant having a membrane containing 1 wt-% HPBCD has a core with an outer diameter of 3.03 mm and a length of 44 mm, and the membrane wall of 0.25 mm. Reference 2 comprises a core having an outer diameter of 2.8 mm, a length of 48 mm and the membrane with a wall of 0.25 mm.
smiles,measurement,setting,value
"C#C[C@]1(O)CC[C@H]2[C@@H]3CCC4=Cc5oncc5C[C@]4(C)[C@H]3CC[C@@]21C [danazol, (17alpha)-pregna-2,4-dien-20-yn[2,3-d]isoxazol-17-ol]",release rate when HPBCD is added into the membrane,[1]; HPBCD modified IVR vs reference samples,seems to be higher
same,release rate trend over time,"[1]; HPBCD modified IVR, first two weeks, up to the zenith point",slightly increasing trend
same,release rate compared to ordinary ring with 0.9 mm wall,"[1]; IVR with 0.17 w-% HPBCD content and 0.7 mm membrane wall, two and half week release",stays equal
same,initial burst without the modification relative to that found for modified samples,"[1]; IVR without HPBCD (membrane wall 0.3 and 0.9 mm) vs HPBCD modified samples, FIG. 1",five to ten times
same,initial burst without the modification relative to the release rate in two weeks dissolution,"[1]; IVR without HPBCD (membrane wall 0.3 and 0.9 mm), FIG. 1",three to five times
same,initial burst effect,"[1]; IVR, all HPBCD modified samples (0.17, 1.7, 7.7 wt-% HPBCD in membrane; wall 0.7, 0.35, 0.25 mm), 1 wt-% hydroxypropyl cyclodextrin medium, 37° C, FIG. 1",negative initial burst effect
"CC(=O)c1ccc(C2C[C@@]3(C)[C@@H](CCC3(O)C(F)(F)C(F)(F)F)[C@@H]3CCC4=CC(=O)CCC4=C23)cc1 (stereo partly drawn) [FAP, 11-(4-Acetylphenyl)-17-hydroxy-17-(1,1,2,2,2-pentafluoroethyl)estra-4,9-dien-3-one]",burst effect,[2]; amount of cyclodextrin in membrane 1 wt-%,still some burst effect remaining
same,level of the release rate,[2]; amount of cyclodextrin in the membrane 4 wt-% (vs 1 wt-%),higher
same,release rate profile compared to reference sample,[2]; both cyclodextrin modified samples (1 and 4 wt-%),higher
same,initial burst,"[2]; both cyclodextrin-modified membranes (1 and 4 wt-% HPBCD) vs reference sample, FIG. 3",decreased
same,shape of the curve of the release rate after two days,[2]; reference and modified samples compared,similar
C#C[C@]1(O)C=C[C@H]2[C@@H]3CCC4=CC(=O)CC[C@@H]4[C@H]3CC[C@@]21CC [gestodene],total decrease of release in 14 days,"[3]; both reference samples (implants without HPBCD in membrane), FIG. 2",30%
same,total decrease of the gestodene release from the second to the third week,[3]; implant with cyclodextrin (HPBCD) modified membrane,0.5%
same,maximum decrease of release in two weeks,"[3]; implant with cyclodextrin (HPBCD) modified membrane, FIG. 2",ca. 6%
same,decrease of the gestodene release from the second to the third week,[3]; reference samples (implants without HPBCD in membrane),8.4% and 11%
